Laboratory results as given in PMC10986598, “Investigating inhibitors of 1-deoxy-D-xylulose 5-phosphate synthase in a mouse model of UTI” (Microbiology Spectrum, 2024).
Where two headings read alike, the source gives them in different places.

What was measured:
UPEC strain CFT073 = assay: In vivo ascending UTI assay (prophylaxis); design: species or system Escherichia coli in C3H/HeN mice; conditions: gentamicin 10 mg/kg IP 30 min prior to inoculation
Description: Female mice were injected subcutaneously in the flank with 2.5 mg of MPA (150 mg/mL, diluted in sterile saline) 7 days prior to inoculation ([60]). Mice were dosed vaginally with 30 µL of sterile saline lavage fluid immediately prior to inoculation. The fluid was collected, placed on a slide, heat fixed, Gram stained, and assessed to determine the estrous cycle stage of each mouse as previously described ([61]).
Six-week-old female C3H/HeN mice were inoculated with UPEC as previously described ([28]). Briefly, UPEC strain CFT073 (ATCC designation: BAA-2503) was streaked on LB agar from a frozen glycerol stock and grown overnight at 37°C. Following overnight incubation, three to five colonies were picked and subcultured into 10 mL of sterile LB, and the culture was incubated statically overnight at 37°C. The culture was diluted 1:1,000 (25 µL of culture into 25 mL of sterile LB) and incubated statically for 24 h at 37°C to promote the growth of bacteria with type-1 pili expression. The resulting 25 mL inoculum was centrifuged at 4,200 × g for 20 min at 4°C. The supernatant was removed, and the cell pellet was resuspended in 10 mL of sterile PBS. The OD600 was adjusted to 1.0 by the addition of PBS to give a cell density of approximately 4 × 10^7 to 1 × 10^8 CFUs per 50 µL, the volume of the inoculum. Cell counts were validated by plating a dilution of the inoculum solution and enumerating following overnight incubation.
Urinary catheters were assembled by threading 30G needles with 0.28 mm inner diameter polyethylene tubing to create a soft tip. Catheter tips were dipped in lubricant immediately before inoculation. During catheterization, urine was aspirated from the bladder prior to inoculation with 50 µL of UPEC inoculum, prepared as described above. Mice were housed with their drug-dosed cohort and dosed intraperitoneally according to each experiment’s dosing regimen as shown in the figures. Dosing regimen for BAP trial 1 (Fig. 7b)consisted of IP administration of BAP (300 mg/kg) 30 min before inoculation; dosing regimen for BAP trial 2 (Fig. 7c) consisted of IP administration of BAP (600 mg/kg) 30 min before inoculation followed with IP doses of BAP (300 mg/kg) at 1 and 3 hpi; dosing regimen for BAP trial 3 and the pro-hpAP trial (Fig. 7d) consisted of IP administration of BAP (600 mg/kg) or pro-hpAP (60 mg/kg) 30 min before inoculation followed with IP doses of BAP (300 mg/kg) or pro-hpAP (30 mg/kg) at 1, 3, and 24 hpi; dosing regimen 4 (Fig. S3) consisted of IP administration of BAP (600 mg/kg) 30 min before inoculation followed with IP doses of BAP (300 mg/kg) at 1, 3, 6, 10, 22, 26, and 30 hpi. Gentamicin diluted in sterile PBS was used as a positive control and was administered to mice at 10 mg/kg IP 30 min prior to inoculation in all experiments.
After 48 h, mice were anesthetized by isoflurane inhalation and sacrificed by cervical dislocation. Bladders were harvested, added to 1 mL sterile PBS, and homogenized with a hand-held homogenizer in a biosafety cabinet. Tissue homogenates were serially-diluted (five 10-fold dilutions), and 100 µL of each dilution was plated onto LB plates and enumerated after a 24 h incubation at 37°C, yielding an effective detection range of 1 × 10^2–150 × 10^8 CFU/mL. In a few cases, bacterial counts fell below the lower limit of detection or above the upper limit of detection and are reported as 0 CFU/mL or conservatively 200 × 10^8 CFU/mL, respectively.

[1] = In vivo PK studies in CD-1 mice; conditions: for AUC: pro-hpAP 30 mg/kg IP; for Cmax / AUC(0-t): ip, 30 mg/kg; for AUC(0-t): read-out: AUC0-t
Description: For pharmacokinetic analysis, both male (n = 2) and female (n = 2) CD1 mice were dosed with either BAP or pro-hpAP by intraperitoneal (IP) route or administration (100 mg/kg) and (30 mg/kg), respectively. Blood and tissue samples were collected at predetermined time points (0–6 h post-dose). Plasma was generated from blood by low-speed centrifugation (3,000 × g), and all samples were stored at −80°C until bioanalysis.
Non-compartmental-analysis module in WinNonlin was used to assess blood pharmacokinetic parameters including max concentrations (Cmax), time to Cmax (Tmax), area under the curve (AUC), area extrapolated to infinity (AUC0–∞), and terminal half-life (t1/2). In addition, the tissue penetration index was measured as the ratio of AUCtissue to AUCplasma.
To quantify BAP and pro-hpAP, methanol containing 0.5 µM losartan as an internal standard was added 5 µL/µL plasma or 5 µL/mg tissue in microcentrifuge tubes. Tissue was further homogenized using a Spex Geno/Grinder with stainless steel beads for 3 min at 1,500 RPM. Homogenates from untreated animals were spiked with the analytes from 100 to 0.01 nmol/g tissue by serial dilution to generate a standard curve. Plasma and tissue homogenates were then vortexed and centrifuged (16,000 × g for 5 min at 4°C) to precipitate proteins. Supernatants were transferred to a 96 well plate and 2 µL was injected on a Accela 1250 LC coupled to a Vantage triple quadrupole mass spectrometer (Thermo Fisher Scientific Inc., Waltham MA). Samples were separated on an Agilent EclipsePlus C18 RRHD (1.8 µm) 2.1 × 100 mm column with mobile phases consisting of water +0.1% formic acid (A), and acetonitrile + 0.1% formic acid (B). […] Samples were introduced to the source through heated ion spray with the capillary temperature setting at 350°C, spray voltage of 4 kV and S-Lens RF of 51. Nitrogen was used as the sheath and auxiliary gas with the settings of 50 and 1 arbitrary units, respectively. For BAP, the instrument was operated in negative ion mode scanning for transitions of 179.1 > 63.1, 79.1 (BAP) and 420.9 > 179.1, 127.0 (losartan) which were acquired with collision energies setting of 17; 55 and 25; 41 CE, respectively. For pro-hpAP, the instrument was operated in positive ion mode scanning for transitions of 346.2 to 86.1 and 143.2 (pro-hpAP) and 422.9 to 207.1 and 180.1 (losartan) which were acquired with collision energies setting of 29; 17 and 37; 22 CE, respectively. Peaks were quantified with Xcalibur software.

[2] = both sexes, CD1, mouse, in vivo, Bladder, single 30 mg/kg IP dose of pro-hpAP, analyte = labelled substance
[3] = both sexes, CD1, mouse, in vivo, Brain, single 30 mg/kg IP dose of pro-hpAP, analyte = labelled substance
[4] = both sexes, CD1, mouse, in vivo, Kidney, single 30 mg/kg IP dose of pro-hpAP, analyte = labelled substance

SMILES	mice with bacterial burden below the limit of detection (LOD) (UPEC strain CFT073)	AUC ([1]; bladder, analyte = labelled substance (pro-hpAP or released hpAP))	Cmax [1, 2]	AUC(0-t) [1, 2]	Cmax [1, 3]	AUC(0-t) [1, 3]	Cmax [1, 4]	AUC(0-t) [1, 4]	Cmax ([1]; both sexes, CD1, mouse, in vivo, Plasma, single 30 mg/kg IP dose of pro-hpAP, analyte = labelled substance (pro-hpAP or released hpAP))	AUC(0-t) ([1]; both sexes, CD1, mouse, in vivo, Plasma, single 30 mg/kg IP dose of pro-hpAP, analyte = labelled substance)	Tmax ([1]; both sexes, CD1, mouse, in vivo, Kidney, single 30 mg/kg IP dose of pro-hpAP, analyte = labelled substance, read-out: Tmax)	AUC ([1]; both sexes, CD1, mouse, in vivo, plasma, analyte = labelled substance, read-out: AUC)	AUC ([1]; brain, analyte = labelled substance)	AUC ([1]; kidney, analyte = labelled substance)
CNC(C)C1CCC(N)C(OC2C(N)CC(N)C(OC3OCC(C)(O)C(NC)C3O)C2O)O1 (centres unmarked) [gentamicin, reference compound]	5 of 8	–	–	–	–	–	–	–	–	–	–	–	–	–
C#CCCOP(=O)(O)C(C)=O [hpAP, homopropargyl acetylphosphonate]	–	366 ± 31 nmol·h/g	586 ± 78 µM	366 ± 31 µM·h	2.18 ± 0.16 µM	1.87 ± 0.21 µM·h	50.2 ± 7.7 µM	16.3 ± 1.4 µM·h	110 ± 11 µM	38.8 ± 2.7 µM·h	15 min	38.8 ± 2.7 µM·h	1.87 ± 0.21 nmol·h/g	16.3 ± 1.4 nmol·h/g
